# Source: patent US8026244B2, “Thioxanthine derivatives and their use as inhibitors of MPO” (AstraZeneca AB, priority 2006, dated 2011)
# pIC50: −log10 of the molar value.
# Molecular target: T1, human MPO (Homo sapiens, UniProt P05164)
# T1 sequence (P05164 49-745): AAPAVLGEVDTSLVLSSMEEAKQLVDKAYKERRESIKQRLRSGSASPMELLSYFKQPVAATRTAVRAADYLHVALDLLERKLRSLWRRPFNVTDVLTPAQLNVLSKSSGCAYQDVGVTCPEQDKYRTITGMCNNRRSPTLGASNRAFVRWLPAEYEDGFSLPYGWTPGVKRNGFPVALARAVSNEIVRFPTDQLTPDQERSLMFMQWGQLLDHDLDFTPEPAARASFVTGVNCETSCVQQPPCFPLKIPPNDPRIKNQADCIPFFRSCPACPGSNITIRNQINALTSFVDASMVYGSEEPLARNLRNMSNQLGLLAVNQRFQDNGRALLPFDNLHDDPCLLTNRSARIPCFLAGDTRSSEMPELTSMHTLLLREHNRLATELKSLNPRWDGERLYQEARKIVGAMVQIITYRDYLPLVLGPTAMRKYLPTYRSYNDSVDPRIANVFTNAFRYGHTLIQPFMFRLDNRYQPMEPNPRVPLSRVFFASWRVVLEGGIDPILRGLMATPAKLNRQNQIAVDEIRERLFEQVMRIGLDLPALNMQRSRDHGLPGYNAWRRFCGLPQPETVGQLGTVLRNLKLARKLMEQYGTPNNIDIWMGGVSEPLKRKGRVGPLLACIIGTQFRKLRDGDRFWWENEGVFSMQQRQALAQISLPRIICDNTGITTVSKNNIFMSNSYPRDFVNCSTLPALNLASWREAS
# Experiment: MPO inhibition screen (TMB oxidation, absorbance), compounds alone or with added tyrosine
# Type: biochemical
# Conditions: in the presence of tyrosine (final concentration 8 μM); human MPO 2.5 nM; H2O2 100 μM; pH 6.5
# Method: Methods for the determination of MPO inhibitory activity are disclosed in patent application WO 02/090575. The pharmacological activity of compounds according to the invention was tested in the following screen in which the compounds were either tested alone or in the presence of added tyrosine:
# Assay buffer: 20 mM sodium/potassium phosphate buffer pH 6.5 containing 10 mM taurine and 100 mM NaCl.
# Developing reagent: 2 mM 3,3′,5,5′-tetramethylbenzidine (TMB), 200 μM KI, 200 mM acetate buffer pH 5.4 with 20% DMF.
# To 10 μl of diluted compounds in assay buffer, 40 μl of human MPO (final concentration 2.5 nM), with or without 20 μM tyrosine (final concentration, if present, 8 μM), was added and the mixture was incubated for 10 minutes at ambient temperature. Then 50 μl of H2O2 (final concentration 100 μM), or assay buffer alone as a control, were added. After incubation for 10 minutes at ambient temperature, the reaction was stopped by adding 10 μl 0.2 mg/ml of catalase (final concentration 18 μg/ml). The reaction mixture was left for an additional 5 minutes before 100 μl of TMB developing reagent was added. The amount of oxidised 3,3′,5,5′-tetramethylbenzidine formed was then measured after about 5 minutes using absorbance spectroscopy at about […]. IC50 values were then determined using standard procedures.
row,pIC50,SMILES
1,5.66,"CC(Cn1c(=S)[nH]c(=O)c2[nH]cnc21)NCc1cccn1C (stereo not drawn) [Example 44, 3-(2-{[(1-methyl-1H-pyrrol-2-yl)methyl]amino}propyl)-2-thioxo-1,2,3,7-tetrahydro-6H-purin-6-one]"
2,7.00,"O=c1[nH]c(=S)n(Cc2ccncc2)c2nc[nH]c12 [Example 3, 3-(pyridin-4-ylmethyl)-2-thioxo-1,2,3,7-tetrahydro-6H-purin-6-one]"
3,5.00,"CC(c1nc2ccccc2[nH]1)n1c(=S)[nH]c(=O)c2[nH]cnc21 (stereo not drawn) [Example 9, 3-[1-(1H-benzimidazol-2-yl)ethyl]-2-thioxo-1,2,3,7-tetrahydro-6H-purin-6-one]"
